Active and inactive are the calls of the source. No cut-off for these calls is given here.
Columns and labels:
[1] = test system: Nucleic Acid; experiment: Binding affinity to poly(U) RNA by circular dichroism spectra analysis; type: nucleic-acid assay
[2] = test system: Moloney murine leukemia virus; experiment: Inhibition of Moloney murine leukemia virus reverse transcriptase at 0.5 ug after 1 hr by RT-PCR analysis relative to control
[3] = molecular target: Human immunodeficiency virus type 1 reverse transcriptase (Human immunodeficiency virus 1) (UniProt Q72547); experiment: Inhibition of HIV1 reverse transcriptase at 0.5 to 1 ug after 1 hr by RT-PCR analysis relative to control
[4] = test system: Moloney murine leukemia virus; experiment: Inhibition of Moloney murine leukemia virus reverse transcriptase at 1 ug after 1 hr by RT-PCR analysis relative to control
[5] = test system: Nucleic Acid; experiment: Binding affinity to poly(U) RNA by ultraviolet spectra analysis; type: nucleic-acid assay
[6] = test system: Nucleic Acid; experiment: Binding affinity to dT12 DNA by ultraviolet spectra analysis; type: nucleic-acid assay
[7] = test system: Nucleic Acid; experiment: Binding affinity to dT12 DNA by circular dichroism spectra analysis; type: nucleic-acid assay

Activity [1]: Active | inhibition [2]: 30% | inhibition [3]: 60% | inhibition [4]: 18% | Activity [5]: Active | Activity [6]: inactive | Activity [7]: inactive
SMILES: Cc1cn(CC(=O)NCCCC[C@H](N)C(=O)NCC[C@H](N)C(=O)NCCCC[C@H](N)C(=O)NCC[C@H](N)C(=O)NCCCC[C@H](N)C(=O)NCC[C@H](N)C(=O)NCCCC[C@H](N)C(=O)NCC[C@H](N)C(=O)NCCCC[C@H](N)C(=O)NCC[C@H](N)C(=O)NCCCC[C@H](N)C(=O)NCC[C@H](N)C(=O)NCCCC[C@H](N)C(=O)NCC[C@H](N)C(=O)NCCCC[C@H](N)C(=O)NCC[C@H](N)C(=O)NCCCC[C@H](N)C(N)=O)c(=O)[nH]c1=O
